# Source: patent publication US9867376B2, “Herbicidal compositions comprising N-tetrazol-5-yl)- or N-(triazol-5-yl)arylcarboxamides” (priority 2012, dated 2018)
# Legend:
# Format in all cases: in vivo
# [1] = tested on: Digitaria sanguinalis; assay: Greenhouse trial, post-emergence, visual herbicidal effect; conditions: alone
# Description: (§1) The weed seeds were sown in pots (diameter 8 cm) with sandy loam soil and germinated under optimum conditions. The herbides were applied by the post-emergence method onto the pots with the cultures, at a spray volume of 300 I/ha. The herbicides were applied on their own and in combination. The trial was conducted in a greenhouse under optimum growth conditions. The herbicidal effects were assessed visually by comparison of untreated and treated plants. The percentages mean: 0%=no effects, 100%=the plants die off completely). The percentages are used to calculate interactions between individual treatments and combination treatment according to S. R. Colby, Weeds 15, pages 20 to 22 (1967).
# (§2) The abbreviations denote: • a.i.=active ingredient • E^C=expected value according to Colby (E^C=A+B−A×B100) • Δ=difference (%) of the measured value to the expected value (%) (measured value minus expected value)
# (§3) Evaluation: • measured value E is greater than E^C:→synergism (+Δ) • measured value E equals E^C:→additive effect • measured value E is smaller than E^C:→antagonism (−Δ)
# [2] = tested on: Bidens pilosa; assay: as above
# Description: as §1, §2, §3
# [3] = tested on: Ambrosia artemisiifolia; assay: as above; conditions: alone
# Description: as §1, §2, §3
# [4] = tested on: Setaria viridis; assay: as above
# Description: as §1, §2, §3
# [5] = tested on: Pharbitis purpurea; assay: as above; conditions: alone
# Description: as §1, §2, §3
# [6] = tested on: Polygonum convolvulus; assay: as above; conditions: alone
# Description: as §1, §2, §3
# [7] = tested on: Centaurea cyanis; assay: as above; conditions: alone
# Description: as §1, §2, §3
# [8] = tested on: Avena fatua; assay: as above; conditions: Table 5-49, greenhouse, alone, 4 g of a.i./ha
# Description: as §1, §2, §3
# [9] = tested on: Euphorbia heterophylla; assay: Field trial, post-emergence, visual scoring
# Description: (§4) The tests were conducted outdoors (plot trials, 10 m^2 per plot, 2 repetitions, spray application with 200-300 liters of water per hectare). Crops and broad-leaved weeds/weed grasses were sown under customary field conditions. In addition, a natural weed flora also appeared. Application was by the post-emergence method. The application rates of the herbicidally active compounds applied on their own or in combinations are likewise shown in the tables below. Evaluations were by visual scoring (using a 0-100% scale) after application by comparison of treated and untreated test variants.
# as §2, §3
# [10] = tested on: Brachiaria platyphylla; assay: Greenhouse trial, post-emergence, visual herbicidal effect
# Description: as §1, §2, §3
# [11] = tested on: Veronica hederifolia; assay: Field trial, post-emergence, visual scoring; conditions: alone, 25 g of a.i./ha
# Description: as §4, §2, §3
# [12] = tested on: Papaver rhoeas; assay: Greenhouse trial, post-emergence, visual herbicidal effect; conditions: alone
# Description: as §1, §2, §3
# [13] = tested on: Galium aparine; assay: Field trial, post-emergence, visual scoring; conditions: Table 5-92, field, alone, 25 g of a.i./ha
# Description: as §4, §2, §3
# [14] = tested on: Xanthium strumarium; assay: Greenhouse trial, post-emergence, visual herbicidal effect; conditions: alone
# Description: as §1, §2, §3
# [15] = tested on: Portulaca oleracea; assay: Field trial, post-emergence, visual scoring; conditions: alone
# Description: as §4, §2, §3
# [16] = Table 5-91, greenhouse, 2 g of a.i./ha
# [17] = Table 5-97, greenhouse, alone, 0.5 g of a.i./ha
# [18] = Table 5-99, greenhouse, 1 g of a.i./ha
# [19] = Table 5-100, greenhouse, 1 g of a.i./ha
# [20] = Table 5-101, greenhouse, 1 g of a.i./ha
# [21] = Table 5-103, greenhouse, 2 g of a.i./ha
molecule,measurement,setting,value
CCSc1c(Br)ccc(C(=O)Nc2nnnn2C)c1C [A1-23],Activity [%] against Digitaria sanguinalis,"[1]; Table 5-35, greenhouse, 1 g of a.i./ha",10%
same,Activity [%] against Bidens pilosa,"[2]; Table 5-28, greenhouse, alone, 2 g of a.i./ha",45%
same,Activity [%] against Bidens pilosa,"[2]; Table 5-33, greenhouse, alone, 1 g of a.i./ha",35%
same,Activity [%] against Ambrosia artemisiifolia,"[3]; Table 5-29, greenhouse, 1 g of a.i./ha",10%
same,Activity [%] against Ambrosia artemisiifolia,"[3]; Table 5-32, greenhouse, 1 g of a.i./ha",0%
same,Activity [%] against Setaria viridis,"[4]; Table 5-27, greenhouse, alone, 2 g of a.i./ha",50%
same,Activity [%] against Setaria viridis,"[4]; Table 5-31, greenhouse, alone, 2 g of a.i./ha",50%
same,Activity [%] against Pharbitis purpurea,"[5]; Table 5-30, greenhouse, 1 g of a.i./ha",45%
same,Activity [%] against Pharbitis purpurea,"[5]; Table 5-34, greenhouse, 2 g of a.i./ha",45%
Cc1c(C(=O)Nc2nnnn2C)ccc(S(C)(=O)=O)c1C1=NOCC1 [A1-24],Activity [%] against Digitaria sanguinalis,"[1]; Table 5-36, greenhouse, 6 g of a.i./ha",50%
same,Activity [%] against Polygonum convolvulus,"[6]; Table 5-37, greenhouse, 6 g of a.i./ha",0%
CCc1c(C(=O)Nc2nnnn2C)ccc(C(F)(F)F)c1SC [A1-33],Activity [%] against Polygonum convolvulus,"[6]; Table 5-44, greenhouse, 4 g of a.i./ha",0%
same,Activity [%] against Setaria viridis,"[4]; Table 5-43, greenhouse, alone, 2 g of a.i./ha",75%
COc1c(C(=O)Nc2nnnn2C)ccc(C(F)(F)F)c1SC [A1-44],Activity [%] against Centaurea cyanis,"[7]; Table 5-50, greenhouse, 8 g of a.i./ha",50%
same,Activity [%] against Avena fatua,[8],0%
same,Activity [%] against Euphorbia heterophylla,"[9]; Table 5-51, field, alone, 25 g of a.i./ha",58%
Cn1nnnc1NC(=O)c1ccc(S(C)(=O)=O)c(COCC(F)(F)F)c1Cl [A1-61],Activity [%] against Brachiaria platyphylla,"[10]; Table 5-64, greenhouse, alone, 6 g of a.i./ha",0%
same,Activity [%] against Setaria viridis,"[4]; Table 5-65, greenhouse, alone, 3 g of a.i./ha",0%
same,Activity [%] against Veronica hederifolia,"[11]; Table 5-66, field",68%
CCS(=O)(=O)c1ccc(C(=O)Nc2nnnn2C)c(Cl)c1C1=NOC(COC)C1 (stereo not shown) [A1-66],Activity [%] against Ambrosia artemisiifolia,"[3]; Table 5-75, greenhouse, 6 g of a.i./ha",35%
same,Activity [%] against Veronica hederifolia,"[11]; Table 5-76, field",75%
CCOc1c(S(C)(=O)=O)ccc(C(=O)Nc2nnnn2C)c1Cl [A1-69],Activity [%] against Centaurea cyanis,"[7]; Table 5-81, greenhouse, 4 g of a.i./ha",65%
same,Activity [%] against Polygonum convolvulus,"[6]; Table 5-84, greenhouse, 4 g of a.i./ha",0%
same,Activity [%] against Papaver rhoeas,"[12]; Table 5-82, greenhouse, 4 g of a.i./ha",10%
same,Activity [%] against Papaver rhoeas,"[12]; Table 5-83, greenhouse, 4 g of a.i./ha",10%
same,Activity [%] against Euphorbia heterophylla,"[9]; Table 5-85, field, alone, 25 g of a.i./ha",20%
CCn1nnnc1NC(=O)c1ccc(C(F)F)c(SC)c1OC [A1-79],Activity [%] against Bidens pilosa,"[2]; Table 5-90, greenhouse, alone, 2 g of a.i./ha",20%
same,Activity [%] against Ambrosia artemisiifolia,[3]; [16],30%
same,Activity [%] against Galium aparine,[13],70%
COc1c(C(=O)Nc2nnnn2C)ccc(C(F)F)c1S(C)(=O)=O [A1-80],Activity [%] against Ambrosia artemisiifolia,"[3]; Table 5-93, greenhouse, 1 g of a.i./ha",25%
CCS(=O)(=O)c1ccc(C(=O)Nc2nnnn2C)c(Cl)c1OCCCOC [A1-83],Activity [%] against Bidens pilosa,"[2]; Table 5-96, greenhouse, alone, 1 g of a.i./ha",35%
same,Activity [%] against Brachiaria platyphylla,[10]; [17],0%
CCn1nnnc1NC(=O)c1ccc(C)c([S+](C)[O-])c1Cl (stereo not shown) [A1-84],Activity [%] against Xanthium strumarium,[14]; [18],10%
same,Activity [%] against Pharbitis purpurea,"[5]; Table 5-98, greenhouse, 2 g of a.i./ha",30%
CSc1c(C(F)(F)F)ccc(C(=O)Nc2nnnn2C)c1Cl [A1-85],Activity [%] against Ambrosia artemisiifolia,[3]; [19],50%
same,Activity [%] against Xanthium strumarium,[14]; [20],25%
Cc1c(C(=O)Nc2ncnn2C)ccc(S(C)(=O)=O)c1S(C)(=O)=O [A2-4],Activity [%] against Ambrosia artemisiifolia,"[3]; Table 5-102, greenhouse, 1 g of a.i./ha",40%
same,Activity [%] against Xanthium strumarium,[14]; [21],10%
same,Activity [%] against Euphorbia heterophylla,"[9]; Field, dosage 25 g of a.i./ha",50%
CCS(=O)(=O)c1c(C(F)(F)F)ccc(C(=O)Nc2ncnn2C)c1Cl [A2-10],Activity [%] against Bidens pilosa,"[2]; Greenhouse, dosage 2 g of a.i./ha",50%
same,Activity [%] against Brachiaria platyphylla,"[10]; Greenhouse, dosage 1 g of a.i./ha, Table 5-110",35%
same,Activity [%] against Brachiaria platyphylla,"[10]; Greenhouse, dosage 2 g of a.i./ha, Table 5-109",0%
Nc1c([N+](=O)[O-])ccc(Oc2ccccc2)c1Cl [aclonifen],Activity [%] against Portulaca oleracea,"[15]; Table 5-22, field, 1200 g of a.i./ha",0%
C/C(=N\NC(=O)Nc1cc(F)cc(F)c1)c1ncccc1C(=O)O [diflufenzopyr],Activity [%] against Ambrosia artemisiifolia,"[3]; Table 5-93, greenhouse, 25 g of a.i./ha",50%
same,Activity [%] against Brachiaria platyphylla,"[10]; Greenhouse, dosage 25 g of a.i./ha, Table 5-113",60%
same,Activity [%] against Setaria viridis,"[4]; Greenhouse, dosage 12.5 g of a.i./ha",50%
COc1cc(OC)nc(NC(=O)NS(=O)(=O)c2cc(NC=O)ccc2C(=O)N(C)C)n1 [foramsulfuron],Activity [%] against Portulaca oleracea,"[15]; Table 5-14, field, 16 g of a.i./ha",0%
COCc1cnc(C2=NC(C)(C(C)C)C(=O)N2)c(C(=O)O)c1 (stereo not shown) [imazamox],Activity [%] against Bidens pilosa,"[2]; Table 5-46, greenhouse, alone, 1 g of a.i./ha",10%
same,Activity [%] against Bidens pilosa,"[2]; Table 5-47, greenhouse, alone, 2 g of a.i./ha",20%
same,Activity [%] against Bidens pilosa,"[2]; Table 5-90, greenhouse, alone, 1 g of a.i./ha",10%
same,Activity [%] against Ambrosia artemisiifolia,[3]; [16],10%
same,Activity [%] against Ambrosia artemisiifolia,[3]; [19],0%
same,Activity [%] against Ambrosia artemisiifolia,"[3]; Table 5-102, greenhouse, 2 g of a.i./ha",0%
same,Activity [%] against Xanthium strumarium,[14]; [18],0%
same,Activity [%] against Xanthium strumarium,[14]; [20],10%
same,Activity [%] against Xanthium strumarium,[14]; [21],0%
same,Activity [%] against Brachiaria platyphylla,"[10]; Table 5-45, greenhouse, alone, 2 g of a.i./ha",10%
same,Activity [%] against Pharbitis purpurea,"[5]; Table 5-98, greenhouse, 1 g of a.i./ha",15%
CC(C)c1ccc(NC(=O)N(C)C)cc1 [isoproturon],Activity [%] against Centaurea cyanis,"[7]; Table 5-81, greenhouse, 100 g of a.i./ha",0%
same,Activity [%] against Polygonum convolvulus,"[6]; Table 5-44, greenhouse, 200 g of a.i./ha",0%
same,Activity [%] against Polygonum convolvulus,"[6]; Table 5-84, greenhouse, 200 g of a.i./ha",0%
same,Activity [%] against Papaver rhoeas,"[12]; Table 5-82, greenhouse, 200 g of a.i./ha",40%
same,Activity [%] against Papaver rhoeas,"[12]; Table 5-83, greenhouse, 200 g of a.i./ha",40%
same,Activity [%] against Setaria viridis,"[4]; Table 5-43, greenhouse, alone, 200 g of a.i./ha",10%
CS(=O)(=O)c1ccc(C(=O)C2C(=O)CCCC2=O)c([N+](=O)[O-])c1 [mesotrione],Activity [%] against Portulaca oleracea,"[15]; Table 5-15, field, 25 g of a.i./ha",0%
COc1cc(OC)nc(NC(=O)NS(=O)(=O)c2ncccc2C(=O)N(C)C)n1 [nicosulfuron],Activity [%] against Portulaca oleracea,"[15]; Table 5-19, field, 20 g of a.i./ha",30%
CCC(CC)Nc1c([N+](=O)[O-])cc(C)c(C)c1[N+](=O)[O-] [pendimethalin],Activity [%] against Digitaria sanguinalis,"[1]; Table 5-36, greenhouse, 50 g of a.i./ha",0%
same,Activity [%] against Xanthium strumarium,"[14]; Table 5-77, greenhouse, 100 g of a.i./ha",0%
same,Activity [%] against Polygonum convolvulus,"[6]; Table 5-37, greenhouse, 100 g of a.i./ha",0%
same,Activity [%] against Polygonum convolvulus,"[6]; Table 5-78, greenhouse, 100 g of a.i./ha",0%
CCS(=O)(=O)c1cccnc1S(=O)(=O)NC(=O)Nc1nc(OC)cc(OC)n1 [rimsulfuron],Activity [%] against Portulaca oleracea,"[15]; Table 5-20, field, 6 g of a.i./ha",0%
COC(=O)c1csc(C)c1S(=O)(=O)NC(=O)n1nc(OC)n(C)c1=O [thiencarbazone-methyl],Activity [%] against Bidens pilosa,"[2]; Table 5-96, greenhouse, alone, 0.5 g of a.i./ha",40%
same,Activity [%] against Ambrosia artemisiifolia,"[3]; Table 5-52, greenhouse, 0.25 g of a.i./ha",0%
same,Activity [%] against Ambrosia artemisiifolia,"[3]; Table 5-75, greenhouse, 0.25 g of a.i./ha",0%
same,Activity [%] against Brachiaria platyphylla,[10]; [17],75%
bicyclopyrone,Activity [%] against Portulaca oleracea,"[15]; Table 5-18, field, 25 g of a.i./ha",23%
